Key:
[1] = test system: human amelanotic melanoma cell line (LOX)
Method: A live cell toxicity assay marketed as LIVE/DEAD Viability/Cytotoxicity Kit by Molecular Probes, Inc. of Eugene, Oreg., was obtained for the test. The assays were carried out in accordance with the manufacturers' instructions using the LOX cells. The LOX cells (10^4/well) were cultured and incubated in a carbon dioxide incubator at 37° C. overnight and then gently washed with PBS.
Calcein Am (2 μM), a fluorescent dye available from Molecular Probes, Inc. for staining live cells, was added to the LOX cells. The Calcein-stained LOX cells were incubated at room temperature for about an hour. […] A positive fluorescence signal from the assay indicates the presence of viable cells in the test sample with the strength of the signal being proportional to the number of viable cells present.
The live cell toxicity assay was carried out four times (n=4) for each test compound.

[2] = test system: human amelanotic melanoma cell line (LOX); experiment: Apoptosis assay (Vybrant Apoptosis Assay Kit #4, YO-PRO); type: cell-based; settings: LOX cells, overnight incubation; dosages 10^−12 to 10^−3 M; n=4
Method: An apoptosis assay marketed as Vybrant Apoptosis Assay Kit #4 from Molecular Probes, Inc., was obtained for the test. […] The apoptosis assay was performed four times (n=4) for each test compound.

[3] = test system: human amelanotic melanoma cell line (LOX); experiment: Collagen degradation inhibition assay (fluorescent-labeled Type I collagen matrix seeded with LOX cells); type: cell-based; settings: LOX cells on Type I collagen matrix, dosages 10^−12 to 10^−3 M, n=4

In the case of `CCCCC[C@@H](O)CC[C@H]1[C@H](O)CC2Cc3c(cccc3OCC(=O)O)C[C@@H]21` (stereo partly drawn) [compound of Formula II, 9-Deoxy-2′,9α-methano-3-oxa-4,5,6-trinor-3,7-(1′,3′-interphenylene)-13,14-dihydro-PGF1], the “dosage at which cell toxicity / inhibited cell viability was exhibited” value [1] is reported as “over 10^−6 M”, the “dosage at which a marked increase in the incidence of apoptosis was seen” value [2] is reported as “over 10^−4 M” and the IC50 ([3]; Homo sapiens) is reported as 10 nM. For the same compound, the “dosage at which collagen degradation activity by LOX cells was inhibited (lowest effective dosage)” value [3] was 2.5 nM.
